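Method: 48-hour compound exposure of cells in 96-well plates, five concentrations, linear interpolation of endpoints. The concentration for 50% growth inhibition is given as GI50. Definition used: TGI = concentration required for complete inhibition of growth.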
Tests used:
Assay in all cases: NCI anticancer screen, dose series, 48 h
SK-MEL-5 melanoma = test system: SK-MEL-5 melanoma
IGROV1 ovarian = test system: IGROV1 ovarian
OVCAR-5 ovarian = test system: OVCAR-5 ovarian
786-0 renal = test system: 786-0 renal
SK-MEL-2 melanoma = test system: SK-MEL-2 melanoma
A498 renal = test system: A498 renal
ACHN renal = test system: ACHN renal
UACC-62 melanoma = test system: UACC-62 melanoma
MOLT-4 leukemia = test system: MOLT-4 leukemia
SF-539 CNS = test system: SF-539 CNS
COLO 205 colon = test system: COLO 205 colon
HCT-116 colon = test system: HCT-116 colon
MDA-MB-231 breast = test system: MDA-MB-231 breast
RXF 393 renal = test system: RXF 393 renal
SF-268 CNS = test system: SF-268 CNS
HT29 colon = test system: HT29 colon
U251 CNS = test system: U251 CNS
HL-60(TB) leukemia = test system: HL-60(TB) leukemia
SNB-19 CNS = test system: SNB-19 CNS
UO-31 renal = test system: UO-31 renal
PC-3 prostate = test system: PC-3 prostate
SK-MEL-28 melanoma = test system: SK-MEL-28 melanoma
NCI-H460 lung = test system: NCI-H460 lung
HCC-2998 colon = test system: HCC-2998 colon
MDA-MB-435 = test system: MDA-MB-435
MCF7 breast = test system: MCF7 breast
OVCAR-8 ovarian = test system: OVCAR-8 ovarian
HS 578T breast = test system: HS 578T breast
BT-549 breast = test system: BT-549 breast
EKVX NSCLC = test system: EKVX NSCLC
SF-295 CNS = test system: SF-295 CNS
SW-620 colon = test system: SW-620 colon
OVCAR-3 ovarian = test system: OVCAR-3 ovarian
CAKI-1 renal = test system: CAKI-1 renal
RPMI-8226 leukemia = test system: RPMI-8226 leukemia
NCI-H522 lung = test system: NCI-H522 lung
NCI-H23 lung = test system: NCI-H23 lung
A549 NSCLC = test system: A549 NSCLC
HOP-62 NSCLC = test system: HOP-62 NSCLC
TK-10 renal = test system: TK-10 renal
T-47D breast = test system: T-47D breast
HCT-15 colon = test system: HCT-15 colon
SK-OV-3 ovarian = test system: SK-OV-3 ovarian
OVCAR-4 ovarian = test system: OVCAR-4 ovarian
CCRF-CEM leukemia = test system: CCRF-CEM leukemia
K-562 leukemia = test system: K-562 leukemia
HOP-92 NSCLC = test system: HOP-92 NSCLC
MALME-3M melanoma = test system: MALME-3M melanoma
M14 melanoma = test system: M14 melanoma
DU-145 prostate = test system: DU-145 prostate
SN12C renal = test system: SN12C renal
NCI/ADR-RES ovarian = test system: NCI/ADR-RES ovarian
UACC-257 melanoma = test system: UACC-257 melanoma
SR leukemia = test system: SR leukemia
KM12 colon = test system: KM12 colon

Q: What does the source list for `C=C(C)[C@@H]1CC[C@]2(C)[C@H](CC=C3[C@@H]4CC(C)(C)CC[C@]4(C(=O)OC)CC[C@]32C)[C@@]1(C)CC/C(N)=N/O`?
A: GI50 (SK-MEL-5 melanoma): 1.77 µM; TGI (SK-MEL-5 melanoma): 3.23 µM; GI50 (IGROV1 ovarian): 2.05 µM; TGI (IGROV1 ovarian): 6.09 µM; GI50 (OVCAR-5 ovarian): 1.72 µM; TGI (OVCAR-5 ovarian): 3.73 µM; GI50 (786-0 renal): 1.76 µM; TGI (786-0 renal): 3.19 µM; GI50 (SK-MEL-2 melanoma): 1.78 µM; TGI (SK-MEL-2 melanoma): 3.95 µM; GI50 (A498 renal): 2.05 µM; TGI (A498 renal): 4.48 µM; GI50 (ACHN renal): 2.05 µM; TGI (ACHN renal): 5.81 µM; GI50 (UACC-62 melanoma): 1.52 µM; TGI (UACC-62 melanoma): 3.11 µM; GI50 (MOLT-4 leukemia): 2.09 µM; TGI (MOLT-4 leukemia): 5.25 µM; GI50 (SF-539 CNS): 1.8 µM; TGI (SF-539 CNS): 3.95 µM; GI50 (COLO 205 colon): 2.46 µM; TGI (COLO 205 colon): 6.54 µM; GI50 (HCT-116 colon): 1.61 µM; TGI (HCT-116 colon): 3.05 µM; GI50 (MDA-MB-231 breast): 1.61 µM; TGI (MDA-MB-231 breast): 3.24 µM; GI50 (RXF 393 renal): 1.8 µM; TGI (RXF 393 renal): 3.67 µM; GI50 (SF-268 CNS): 1.96 µM; TGI (SF-268 CNS): 4.76 µM; GI50 (HT29 colon): 1.88 µM; TGI (HT29 colon): 5.11 µM; GI50 (U251 CNS): 1.81 µM; TGI (U251 CNS): 3.69 µM; GI50 (HL-60(TB) leukemia): 2.47 µM; TGI (HL-60(TB) leukemia): 7.62 µM; GI50 (SNB-19 CNS): 2.21 µM; TGI (SNB-19 CNS): 5.73 µM; GI50 (UO-31 renal): 1.51 µM; TGI (UO-31 renal): 2.94 µM; GI50 (PC-3 prostate): 1.91 µM; TGI (PC-3 prostate): 7.81 µM; GI50 (SK-MEL-28 melanoma): 2.3 µM; TGI (SK-MEL-28 melanoma): 5.57 µM; GI50 (NCI-H460 lung): 1.89 µM; TGI (NCI-H460 lung): 4.03 µM; GI50 (HCC-2998 colon): 1.86 µM; TGI (HCC-2998 colon): 3.67 µM; GI50 (MDA-MB-435): 1.78 µM; TGI (MDA-MB-435): 3.65 µM; GI50 (MCF7 breast): 2.13 µM; TGI (MCF7 breast): 5.3 µM; GI50 (OVCAR-8 ovarian): 2.27 µM; TGI (OVCAR-8 ovarian): 6.29 µM; GI50 (HS 578T breast): 2.02 µM; TGI (HS 578T breast): 4.97 µM; GI50 (BT-549 breast): 1.93 µM; TGI (BT-549 breast): 4.12 µM; GI50 (EKVX NSCLC): 2.11 µM; TGI (EKVX NSCLC): 6.8 µM; GI50 (SF-295 CNS): 1.79 µM; TGI (SF-295 CNS): 4.01 µM; GI50 (SW-620 colon): 1.88 µM; TGI (SW-620 colon): 4.32 µM; GI50 (OVCAR-3 ovarian): 1.67 µM; TGI (OVCAR-3 ovarian): 3.18 µM; GI50 (CAKI-1 renal): 2.4 µM; TGI (CAKI-1 renal): 15.1 µM; GI50 (RPMI-8226 leukemia): 1.95 µM; TGI (RPMI-8226 leukemia): 6.57 µM; GI50 (NCI-H522 lung): 1.58 µM; TGI (NCI-H522 lung): 4.12 µM; GI50 (NCI-H23 lung): 2.84 µM; TGI (NCI-H23 lung): 10.1 µM; GI50 (A549 NSCLC): 2.15 µM; TGI (A549 NSCLC): 7.75 µM; GI50 (HOP-62 NSCLC): 4.44 µM; TGI (HOP-62 NSCLC): 20.6 µM; GI50 (TK-10 renal): 3.66 µM; TGI (TK-10 renal): 18.6 µM; GI50 (T-47D breast): 2.46 µM; TGI (T-47D breast): 9.77 µM; GI50 (HCT-15 colon): 2.05 µM; TGI (HCT-15 colon): 5.6 µM; GI50 (SK-OV-3 ovarian): 4.62 µM; TGI (SK-OV-3 ovarian): 27.2 µM; GI50 (OVCAR-4 ovarian): 2.16 µM; TGI (OVCAR-4 ovarian): 7.23 µM; GI50 (CCRF-CEM leukemia): 2.19 µM; TGI (CCRF-CEM leukemia): 6.2 µM; GI50 (K-562 leukemia): 2.47 µM; TGI (K-562 leukemia): > 100 µM; GI50 (HOP-92 NSCLC): 1.42 µM; TGI (HOP-92 NSCLC): 3.2 µM; GI50 (MALME-3M melanoma): 1.69 µM; TGI (MALME-3M melanoma): 3.33 µM; GI50 (M14 melanoma): 1.78 µM; TGI (M14 melanoma): 3.86 µM; GI50 (DU-145 prostate): 1.95 µM; TGI (DU-145 prostate): 4.28 µM; GI50 (SN12C renal): 1.66 µM; TGI (SN12C renal): 3.2 µM; GI50 (NCI/ADR-RES ovarian): 2.09 µM; TGI (NCI/ADR-RES ovarian): 5.42 µM; GI50 (UACC-257 melanoma): 2.01 µM; TGI (UACC-257 melanoma): 5.34 µM; GI50 (SR leukemia): 1.81 µM; TGI (SR leukemia): 5.2 µM; GI50 (KM12 colon): 1.68 µM; TGI (KM12 colon): 3.6 µM
